Measurements taken from patent publication US20010004643A1, “Pharmaceutical composition with sotalol combination and their use in treatment of cardiac ailments” (priority 1999, published 2001).

Experiments:
[1] = test system: ouabain induced arrhythmia (VT, VF, mortality); test: Ouabain induced arrhythmia model in guinea pig; format: in vivo; conditions: for actual incidence of mortality (value in parenthesis): 60 min; for actual incidence of mortality (value in parenthesis) / actual incidence of VF (value in parenthesis) / actual incidence of VT (value in parenthesis): number of animals of the group; for % INCIDENCE OF MORTALITY: mortality at 60 min; for deaths due to conduction block (60 min), actual incidence (value in parenthesis) / deaths due to tachyarrhythmia (60 min), actual incidence (value in parenthesis): number of animals; for % INCIDENCE OF VF / % INCIDENCE OF VT: ouabain 240 μg/kg in three doses, observed one hour; for DEATHS DUE TO CONDUCTION BLOCK (60 MIN) Percentage / DEATHS DUE TO TACHYARRHYTHMIA (60 MIN) Percentage: percentage deaths out of total mortality
[2] = test system: beta adrenergic blockade, isolated right auricle preparation of rabbit; test: Beta blocking potency (pA2 against isoprenaline) in isolated rabbit right auricle; conditions: isoprenaline chronotropic response, Schild's plot

For `CC(C)NCC(O)c1ccc(NS(C)(=O)=O)cc1` (stereo not drawn) [d-SOTALOL, N-[4-[1-hydroxy-2-[(1-methylethyl)amino]ethyl]phenyl] methane sulfonamide], the “actual incidence of mortality (value in parenthesis)” value (from here on “actual incidence of mortality”) ([1]; 0.5 mg/kg) was “(5)”, the “% INCIDENCE OF MORTALITY” value ([1]; 0.5 mg/kg) was 50.0% and the “deaths due to conduction block (60 min), actual incidence (value in parenthesis)” value ([1]; 0.5 mg/kg) was “(1)”. For the same compound, the “deaths due to tachyarrhythmia (60 min), actual incidence (value in parenthesis)” value ([1]; 0.5 mg/kg) was “(4)”, the “actual incidence of VF (value in parenthesis)” value (“actual incidence of VF” below) ([1]; 0.5 mg/kg) was “(7)” and the “actual incidence of VT (value in parenthesis)” value (“actual incidence of VT” below) ([1]; 0.5 mg/kg) was “(7)”. For the same compound, the “% INCIDENCE OF VF” value ([1]; 0.5 mg/kg) was 70.0%, the “% INCIDENCE OF VT” value ([1]; 0.5 mg/kg) was 70.0% and the “DEATHS DUE TO CONDUCTION BLOCK (60 MIN) Percentage” value ([1]; 0.5 mg/kg) was 20.0%. For the same compound, the “DEATHS DUE TO TACHYARRHYTHMIA (60 MIN) Percentage” value ([1]; 0.5 mg/kg) was 80.0%, the “actual incidence of mortality” value ([1]; 2.5 mg/kg) was “(6)” and the “% INCIDENCE OF MORTALITY” value ([1]; 2.5 mg/kg) was 66.6%. The “deaths due to conduction block (60 min), actual incidence (value in parenthesis)” value ([1]; 2.5 mg/kg) was “(3)”, the “deaths due to tachyarrhythmia (60 min), actual incidence (value in parenthesis)” value ([1]; 2.5 mg/kg) was “(3)” and the “actual incidence of VF” value ([1]; 2.5 mg/kg) was “(6)”. The “actual incidence of VT” value ([1]; 2.5 mg/kg) was “(7)”, the “% INCIDENCE OF VF” value ([1]; 2.5 mg/kg) was 66.6% and the “% INCIDENCE OF VT” value ([1]; 2.5 mg/kg) was 77.7%. For the same compound, the “DEATHS DUE TO CONDUCTION BLOCK (60 MIN) Percentage” value ([1]; 2.5 mg/kg) was 50.0%, the “DEATHS DUE TO TACHYARRHYTHMIA (60 MIN) Percentage” value ([1]; 2.5 mg/kg) was 50.0% and the “actual incidence of mortality” value ([1]; 12.5 mg/kg) was “(6)”. For the same compound, the “% INCIDENCE OF MORTALITY” value ([1]; 12.5 mg/kg) was 100.0%, the “% INCIDENCE OF MORTALITY” value ([1]; 12.5 mg/kg, listed as d-Sotalol) was 100% and the “deaths due to conduction block (60 min), actual incidence (value in parenthesis)” value ([1]; 12.5 mg/kg) was “(3)”. For the same compound, the “deaths due to tachyarrhythmia (60 min), actual incidence (value in parenthesis)” value ([1]; 12.5 mg/kg) was “(3)”, the “actual incidence of VF” value ([1]; 12.5 mg/kg) was “(3)” and the “actual incidence of VT” value ([1]; 12.5 mg/kg) was “(3)”. The “% INCIDENCE OF VF” value ([1]; 12.5 mg/kg) was 50.0%, the “% INCIDENCE OF VT” value ([1]; 12.5 mg/kg) was 50.0% and the “DEATHS DUE TO CONDUCTION BLOCK (60 MIN) Percentage” value ([1]; 12.5 mg/kg) was 50.0%. For the same compound, the “DEATHS DUE TO TACHYARRHYTHMIA (60 MIN) Percentage” value ([1]; 12.5 mg/kg) was 50.0%, the cause of deaths ([1]; doses 2.5 mg/kg and 12.5 mg/kg) was “equally due to conduction abnormality as well as tachyarrhythmias” and the “protection against ouabain induced VF” value ([1]; no dose stated) was “ineffective”. For the same compound, the “protection against ouabain induced VT” value ([1]; no dose stated) was “ineffective”, the “pA2 Mean” value ([2]; listed as 1:0) was 5.44 and the “pA2 Mean” value ([2]; listed as pure d-isomer of sotalol) was 5.44.
